According to the NIST ThermoML archive (doi:10.1021/je049586l):
Numbers after ± are expanded uncertainties.

Assay: molar enthalpy of vaporization or sublimation
Conditions: Crystal, Static calorimetry

`O=C(O)c1ccc(C(=O)O)nc1` [2,5-pyridinedicarboxylic acid] showed a molar enthalpy (492 K) of 194 ± 5.4 kJ/mol.
With `COC(=O)c1cccc(C(=O)OC)n1` [2,6-pyridinedicarboxylic acid, dimethyl ester] the molar enthalpy (385 K) was 130 ± 7.6 kJ/mol.
In the case of `O=C(O)c1cccc(C(=O)O)n1` [pyridine-2,6-dicarboxylic acid], the molar enthalpy (494 K) is reported as 168 ± 11 kJ/mol.
